Laboratory results published in US8759535B2, “Substituted fused imidazole derivatives, pharmaceutical compositions, and methods of use thereof” (High Point Pharmaceuticals, LLC, priority 2010, dated 2014).
Where a name gives a salt, the structure may show the parent alone.

Each compound was assayed on HMOX1 (assay: HMOX1 Protein Assay (immunostaining of HO-1 in NHLF cells, GE InCell 1000)). Details: Homo sapiens, fold change above DMSO treated cells, 3 μM compound (asterisk), 16 h.
Type: cell-based
Procedure: Cell Culture. Normal Human Fibroblast (NHLF), were obtained from Lonza. Cultures of cells were maintained in Fibroblast Growth Medium (FGM-2) medium supplemented with 2% fetal bovine serum (FBS), Fibroblast Growth Factor (hFGF-B) 0.5 mL, Insulin 0.5 mL, gentamicin/amphotericin-B 0.5 mL at 37° C. in a humidified atmosphere of 5% CO2. Cells were grown to 80% confluence before treating.
HMOX1 Protein Assay. NHLF cells were grown to 80% confluency and harvested by washing once with HEPES and then trypsinized. Equal numbers (2×10^3 cells per well) of NHLF cells were plated in 384 well optilux tissue culture (BD) plates. Cells were incubated overnight in FGM-2 medium prior to exposure to compound. Cells were treated with either vehicle (DMSO) or compound (dissolved in vehicle) for 16 h. Cells were washed 2× with 1×PBS and fixed with 4% Paraformaldyhyde for 15 min. The fixed cells were then permeabalized with 0.1% Triton X-100 and blocked with 5% BSA in 1×PBS 0.05% Tween-20 for 15 min. HO-1 antibody (abcam) was used for immunostaining at 1:300 dilution in 1% BSA in 1×PBS for 1 hour. Cells were washed 2× with 1×PBS and secondary antibody goat anti-mouse Alexa 488 1:400 dilution (Invitrogen); Hoechst 1:2000 (Invitrogen) in 1% BSA in 1×PBS for 1 hour. Plate was washed 5× with 1×PBS and read at Hoechst Ex.360 […]; Alexa 488 Ex.480 Em. 535 using GE InCell 1000. Results analyzed using GE InCell Analyzer software. Heme oxygenase data represents the fold change above DMSO treated cells.
In general, the fold induction data are reported for 5 μM concentration (i.e., μ-moles of compound to total volume, where the solvent is about 99.2% media and 0.8% DMSO). In some instances, the reported data are for 3 μM concentration, which are indicated by an asterisk (*).

Q: Which fold induction at 3 µM does the source give for `CCS(=O)(=O)CCNC(=O)c1ccc2c(c1)nc(Nc1nc3ccc(Cl)cc3s1)n2C` [Example 277, 2-(6-Chloro-benzothiazol-2-ylamino)-1-methyl-1H-benzoimidazole-5-carboxylic acid (2-ethanesulfonyl-ethyl)-amide] here?
A: 38.3

Q: How did the fold induction at 3 µM turn out when `C[C@@H](NC(=O)c1ccc2c(c1)nc(Nc1nc3ccc(Cl)cc3s1)n2C)C(=O)N1CCOCC1` [Example 471, 2-(6-Chloro-benzothiazol-2-ylamino)-1-methyl-1H-benzoimidazole-5-carboxylic acid ((R)-1-methyl-2-morpholin-4-yl-2-oxo-ethyl)-amide] was run?
A: 17.4

Q: Which fold induction at 3 µM does the source give for `Cn1c(Nc2nc3ccc(Cl)cc3s2)nc2cc(C(=O)NCCN3CCCCC3)ccc21` [Example 334, 2-(6-Chloro-benzothiazol-2-ylamino)-1-methyl-1H-benzoimidazole-5-carboxylic acid (2-piperidin-1-yl-ethyl)-amide] here?
A: 13.4

Q: Which fold induction at 3 µM does the source give for `Cn1c(Nc2nc3ccc(C(F)(F)F)cc3s2)nc2cc(C(=O)NCC(=O)N3CCC[C@H](O)C3)ccc21` [Example 434, 1-Methyl-2-(6-trifluoromethyl-benzothiazol-2-ylamino)-1H-benzoimidazole-5-carboxylic acid [2-((S)-3-hydroxy-piperidin-1-yl)-2-oxo-ethyl]-amide] here?
A: 34.6

Q: `C[C@@H](NC(=O)c1ccc2c(c1)nc(Nc1nc3ccc(Cl)cc3s1)n2C)C(=O)N(C)C` [Example 467, 2-(6-Chloro-benzothiazol-2-ylamino)-1-methyl-1H-benzoimidazole-5-carboxylic acid ((R)-1-dimethylcarbamoyl-ethyl)-amide] was tested. Which fold induction at 3 µM did it give?
A: 22.3

Q: `CCN(CC)CCCNC(=O)c1ccc2c(c1)nc(Nc1nc3ccc(Cl)cc3s1)n2C` [Example 352, 2-(6-Chloro-benzothiazol-2-ylamino)-1-methyl-1H-benzoimidazole-5-carboxylic acid (3-diethylamino-propyl)-amide] was tested. Which fold induction at 3 µM did it give?
A: 20

Same assay, conditions: Homo sapiens, fold change above DMSO treated cells, 5 μM compound, 16 h

Q: How did the fold induction at 5 µM turn out when `CN(C(=O)CNC(=O)c1ccc2c(c1)nc(Nc1nc3ccc(Cl)cc3s1)n2C)C1CCOCC1` [Example 393, 2-(6-Chloro-benzothiazol-2-ylamino)-1-methyl-1H-benzoimidazole-5-carboxylic acid {[methyl-(tetrahydro-pyran-4-yl)-carbamoyl]-methyl}-amide] was run?
A: 61.3

Q: With `C[C@@H](O)CN1CCC(NC(=O)c2ccc3c(c2)nc(Nc2nc4ccc(OC(F)(F)F)cc4s2)n3C)C1` (stereo partly drawn) [Example 294, 1-Methyl-2-(6-trifluoromethoxy-benzothiazol-2-ylamino)-1H-benzoimidazole-5-carboxylic acid [1-((R)-2-hydroxy-propyl)-pyrrolidin-3-yl]-amide] as the compound, how does the fold induction at 5 µM read?
A: 29.4

Q: With `Cn1c(Nc2nc3ccc(F)cc3s2)nc2cc(C(=O)O)ccc21` [Example 118, 2-(6-Fluoro-benzothiazol-2-ylamino)-1-methyl-1H-benzimidazole-5-carboxylic acid] as the compound, how does the fold induction at 5 µM read?
A: 14.1

Q: With `CC(O)CNC(=O)c1ccc2c(c1)nc(Nc1nc3ccc(OC(F)(F)F)cc3s1)n2C` (stereo not drawn) [Example 21, 1-Methyl-2-(6-trifluoromethoxy-benzothiazol-2-ylamino)-1H-benzoimidazole-5-carboxylic acid (2-hydroxy-propyl)-amide] as the compound, how does the fold induction at 5 µM read?
A: 19.6

Q: `CN[C@@H]1CCN(C(=O)CNC(=O)c2ccc3c(c2)nc(Nc2nc4ccc(OC(F)(F)F)cc4s2)n3C)C1` [Example 413, 1-Methyl-2-(6-trifluoromethoxy-benzothiazol-2-ylamino)-1H-benzoimidazole-5-carboxylic acid [2-((R)-3-methylamino-pyrrolidin-1-yl)-2-oxo-ethyl]-amide hydrochloride] was tested. Which fold induction at 5 µM did it give?
A: 31.8

Q: With `COCCNC(=O)c1cc2nc(Nc3nc4ccc(OC(F)(F)F)cc4s3)n(C)c2cc1F` [Example 39, 6-Fluoro-1-methyl-2-(6-trifluoromethoxy-benzothiazol-2-ylamino)-1H-benzoimidazole-5-carboxylic acid (2-methoxy-ethyl)-amide] as the compound, how does the fold induction at 5 µM read?
A: 18.2

Q: How did the fold induction at 5 µM turn out when `CN(C)CC(=O)N1CC[C@@H](NC(=O)c2ccc3c(c2)nc(Nc2nc4ccc(Cl)cc4s2)n3C)C1` [Example 308, 2-(6-Chloro-benzothiazol-2-ylamino)-1-methyl-1H-benzoimidazole-5-carboxylic acid [(R)-1-(2-dimethylamino-acetyl)-pyrrolidin-3-yl]-amide] was run?
A: 24.3

Q: How did the fold induction at 5 µM turn out when `Cn1c(Nc2nc3ccc(OC(F)(F)F)cc3s2)nc2cc(C(=O)NCC(=O)N3CCCCC3CO)ccc21` (stereo not drawn) [Example 439, 1-Methyl-2-(6-trifluoromethoxy-benzothiazol-2-ylamino)-1H-benzoimidazole-5-carboxylic acid [2-(2-hydroxymethyl-piperidin-1-yl)-2-oxo-ethyl]-amide] was run?
A: 84.2

Q: `CN(C)CCNC(=O)c1ccc2c(c1)nc(Nc1nc3ccc(OC(F)(F)F)cc3s1)n2C` [Example 82, 1-Methyl-2-(6-trifluoromethoxy-benzothiazol-2-ylamino)-1H-benzoimidazole-5-carboxylic acid (2-dimethylamino-ethyl)-amide] was tested. Which fold induction at 5 µM did it give?
A: 17

Q: `Cn1c(Nc2nc3ccc(Cl)cc3s2)nc2cc(C(=O)NCC(=O)N3CC[C@H](N)C3)ccc21` [Example 411, 2-(6-Chloro-benzothiazol-2-ylamino)-1-methyl-1H-benzoimidazole-5-carboxylic acid [2-((S)-3-amino-pyrrolidin-1-yl)-2-oxo-ethyl]-amide hydrochloride] was tested. Which fold induction at 5 µM did it give?
A: 16

Q: How did the fold induction at 5 µM turn out when `COCC1CCN(C(=O)CNC(=O)c2ccc3c(c2)nc(Nc2nc4ccc(OC(F)(F)F)cc4s2)n3C)CC1` [Example 447, 1-Methyl-2-(6-trifluoromethoxy-benzothiazol-2-ylamino)-1H-benzoimidazole-5-carboxylic acid [2-(4-methoxymethyl-piperidin-1-yl)-2-oxo-ethyl]-amide] was run?
A: 58.4

Q: `CN(C)C(=O)C(C)(C)NC(=O)c1ccc2c(c1)nc(Nc1nc3ccc(OC(F)(F)F)cc3s1)n2C` [Example 151, 1-Methyl-2-(6-trifluoromethoxy-benzothiazol-2-ylamino)-1H-benzimidazole-5-carboxylic acid (1-dimethylcarbamoyl-1-methyl-ethyl)-amide] was tested. Which fold induction at 5 µM did it give?
A: 41.3

Q: With `Cn1c(Nc2nc3ccc(Cl)cc3s2)nc2cc(C(=O)NCC(=O)N3CCSCC3)ccc21` [Example 423, 2-(6-Chloro-benzothiazol-2-ylamino)-1-methyl-1H-benzoimidazole-5-carboxylic acid (2-oxo-2-thiomorpholin-4-yl-ethyl)-amide] as the compound, how does the fold induction at 5 µM read?
A: 30.2

Q: How did the fold induction at 5 µM turn out when `COC(=O)c1ccc2c(c1)nc(Nc1nc3cc(F)ccc3s1)n2C` [Example 111, 2-(5-Fluoro-benzothiazol-2-ylamino)-1-methyl-1H-benzoimidazole-5-carboxylic acid methyl ester] was run?
A: 17.6

Q: With `CN(C)C(=O)[C@H]1CC[C@H](NC(=O)c2ccc3c(c2)nc(Nc2nc4ccc(Cl)cc4s2)n3C)CC1` [Example 379, 2-(6-Chloro-benzothiazol-2-ylamino)-1-methyl-1H-benzoimidazole-5-carboxylic acid (4-trans-dimethylcarbamoyl-cyclohexyl)-amide] as the compound, how does the fold induction at 5 µM read?
A: 21.7

Q: For `Cn1c(Nc2nc3ccc(Cl)cc3s2)nc2cc(C(=O)NC3CCN(CCNS(C)(=O)=O)C3)ccc21` (stereo not drawn) [Example 300, 2-(6-Chloro-benzothiazol-2-ylamino)-1-methyl-1H-benzoimidazole-5-carboxylic acid [1-(2-methanesulfonylamino-ethyl)-pyrrolidin-3-yl]-amide], which fold induction at 5 µM is on record?
A: 26.2

Q: For `CN(C)C(=O)CCNC(=O)c1ccc2c(c1)nc(Nc1nc3ccc(OC(F)(F)F)cc3s1)n2C` [Example 135, 1-Methyl-2-(6-trifluoromethoxy-benzothiazol-2-ylamino)-1H-benzimidazole-5-carboxylic acid (2-dimethylcarbamoyl-ethyl)-amide], which fold induction at 5 µM is on record?
A: 49.6

Q: `Cn1c(Nc2nc3ccc(Cl)cc3s2)nc2cc(C(=O)NCCCO)ccc21` [Example 214, 2-(6-Chloro-benzothiazol-2-ylamino)-1-methyl-1H-benzoimidazole-5-carboxylic acid (3-hydroxy-propyl)-amide] was tested. Which fold induction at 5 µM did it give?
A: 42.4

Q: How did the fold induction at 5 µM turn out when `CN(C)CC(=O)N1CCC(NC(=O)c2ccc3c(c2)nc(Nc2nc4ccc(Cl)cc4s2)n3C)CC1` [Example 313, 2-(6-Chloro-benzothiazol-2-ylamino)-1-methyl-1H-benzoimidazole-5-carboxylic acid [1-(2-dimethylamino-acetyl)-piperidin-4-yl]-amide] was run?
A: 22.9

Q: `Cn1c(Nc2nc3ccc(Cl)cc3s2)nc2cc(C(=O)O)ccc21` [Example 29, 2-(6-Chloro-benzothiazol-2-ylamino)-1-methyl-1H-benzoimidazole-5-carboxylic acid] was tested. Which fold induction at 5 µM did it give?
A: 13.9

Q: With `CCn1c(Nc2nc3ccc(Cl)cc3s2)nc2cc(C(=O)NCCOC)ccc21` [Example 177, 2-(6-Chloro-benzothiazol-2-ylamino)-1-ethyl-1H-benzoimidazole-5-carboxylic acid (2-methoxy-ethyl)-amide] as the compound, how does the fold induction at 5 µM read?
A: 30.3
